Assay results from ChEMBL document CHEMBL1926576, “Fragment based lead discovery of small molecule inhibitors for the EPHA4 receptor tyrosine kinase” (Eur J Med Chem, 2012).

Assays:
[1] = target: Maternal embryonic leucine zipper kinase (Homo sapiens) (UniProt Q14680); assay: Inhibition of MELK assessed as residual activity at 10 uM using [33P-ATP] by radiometric filter binding assay
[2] = target: Dual specificity mitogen-activated protein kinase kinase 2 (Homo sapiens) (UniProt P36507); assay: Inhibition of MKK2 assessed as residual activity at 10 uM using [33P-ATP] by radiometric filter binding assay
[3] = target: Serine/threonine-protein kinase PLK1 (Homo sapiens) (UniProt P53350); assay: Inhibition of PLK1 assessed as residual activity at 10 uM using [33P-ATP] by radiometric filter binding assay
[4] = target: Serine/threonine-protein kinase PAK 6 (Homo sapiens) (UniProt Q9NQU5); assay: Inhibition of PAK6 assessed as residual activity at 10 uM using [33P-ATP] by radiometric filter binding assay
[5] = target: 3-phosphoinositide-dependent protein kinase 1 (Homo sapiens) (UniProt O15530); assay: Inhibition of PDK1 assessed as residual activity at 10 uM using [33P-ATP] by radiometric filter binding assay
[6] = target: Serine/threonine-protein kinase D1 (Homo sapiens) (UniProt Q15139); assay: Inhibition of PKD1 assessed as residual activity at 10 uM using [33P-ATP] by radiometric filter binding assay
[7] = target: MAP kinase-activated protein kinase 3 (Homo sapiens) (UniProt Q16644); assay: Inhibition of MAPKAP-K3 assessed as residual activity at 10 uM using [33P-ATP] by radiometric filter binding assay
[8] = target: Misshapen-like kinase 1 (Homo sapiens) (UniProt Q8N4C8); assay: Inhibition of MINK1 assessed as residual activity at 10 uM using [33P-ATP] by radiometric filter binding assay
[9] = target: Interleukin-1 receptor-associated kinase 1 (Homo sapiens) (UniProt P51617); assay: Inhibition of IRAK1 assessed as residual activity at 10 uM using [33P-ATP] by radiometric filter binding assay
[10] = target: Serine/threonine-protein kinase MARK1 (Homo sapiens) (UniProt Q9P0L2); assay: Inhibition of MARK1 assessed as residual activity at 10 uM using [33P-ATP] by radiometric filter binding assay
Sequence of Serine/threonine-protein kinase MARK1 (Homo sapiens) (Q9P0L2 whole entry, looked up): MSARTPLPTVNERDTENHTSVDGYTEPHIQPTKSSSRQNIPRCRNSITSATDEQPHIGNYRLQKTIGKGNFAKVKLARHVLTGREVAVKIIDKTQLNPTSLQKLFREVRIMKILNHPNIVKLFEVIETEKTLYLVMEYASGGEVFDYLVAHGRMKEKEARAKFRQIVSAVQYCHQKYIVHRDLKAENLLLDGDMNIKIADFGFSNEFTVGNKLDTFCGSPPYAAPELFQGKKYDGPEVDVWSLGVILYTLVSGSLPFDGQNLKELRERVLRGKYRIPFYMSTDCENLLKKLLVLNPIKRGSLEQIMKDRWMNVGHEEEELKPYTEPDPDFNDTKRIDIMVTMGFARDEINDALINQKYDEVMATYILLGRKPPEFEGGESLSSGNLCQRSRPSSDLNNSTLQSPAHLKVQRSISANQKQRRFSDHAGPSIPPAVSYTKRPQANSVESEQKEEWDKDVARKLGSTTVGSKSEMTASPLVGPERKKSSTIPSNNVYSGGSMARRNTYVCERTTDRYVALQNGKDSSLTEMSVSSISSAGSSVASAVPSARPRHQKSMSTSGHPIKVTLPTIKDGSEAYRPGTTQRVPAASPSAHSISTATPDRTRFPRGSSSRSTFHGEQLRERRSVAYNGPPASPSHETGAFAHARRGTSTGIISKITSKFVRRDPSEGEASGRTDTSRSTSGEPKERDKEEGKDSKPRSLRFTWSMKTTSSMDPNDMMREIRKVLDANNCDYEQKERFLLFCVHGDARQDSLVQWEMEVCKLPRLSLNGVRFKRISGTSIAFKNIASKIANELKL

[11] = target: Aurora kinase B (Homo sapiens) (UniProt Q96GD4); assay: Inhibition of aurora-B assessed as residual activity at 10 uM using [33P-ATP] by radiometric filter binding assay
Sequence of Aurora kinase B (Homo sapiens) (Q96GD4 whole entry): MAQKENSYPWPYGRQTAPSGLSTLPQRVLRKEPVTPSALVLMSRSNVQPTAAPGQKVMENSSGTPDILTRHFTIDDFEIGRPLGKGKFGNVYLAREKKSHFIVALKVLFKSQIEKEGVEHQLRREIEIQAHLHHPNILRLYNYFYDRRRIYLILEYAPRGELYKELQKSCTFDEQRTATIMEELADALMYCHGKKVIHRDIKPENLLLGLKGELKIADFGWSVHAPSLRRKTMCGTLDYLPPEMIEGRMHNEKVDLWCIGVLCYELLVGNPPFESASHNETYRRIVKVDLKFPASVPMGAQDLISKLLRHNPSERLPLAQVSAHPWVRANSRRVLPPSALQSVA

[12] = target: Mitogen-activated protein kinase 13 (Homo sapiens) (UniProt O15264); assay: Inhibition of p38delta MAPK assessed as residual activity at 10 uM using [33P-ATP] by radiometric filter binding assay
[13] = target: Insulin-like growth factor 1 receptor (Homo sapiens) (UniProt P08069); assay: Inhibition of IGF-1R assessed as residual activity at 10 uM using [33P-ATP] by radiometric filter binding assay
[14] = target: Dual specificity tyrosine-phosphorylation-regulated kinase 1A (Homo sapiens) (UniProt Q13627); assay: Inhibition of DYRK1A assessed as residual activity at 10 uM using [33P-ATP] by radiometric filter binding assay
[15] = target: Mitogen-activated protein kinase 12 (Homo sapiens) (UniProt P53778); assay: Inhibition of p38-gamma MAPK assessed as residual activity at 10 uM using [33P-ATP] by radiometric filter binding assay
Sequence of Mitogen-activated protein kinase 12 (Homo sapiens) (P53778 whole entry): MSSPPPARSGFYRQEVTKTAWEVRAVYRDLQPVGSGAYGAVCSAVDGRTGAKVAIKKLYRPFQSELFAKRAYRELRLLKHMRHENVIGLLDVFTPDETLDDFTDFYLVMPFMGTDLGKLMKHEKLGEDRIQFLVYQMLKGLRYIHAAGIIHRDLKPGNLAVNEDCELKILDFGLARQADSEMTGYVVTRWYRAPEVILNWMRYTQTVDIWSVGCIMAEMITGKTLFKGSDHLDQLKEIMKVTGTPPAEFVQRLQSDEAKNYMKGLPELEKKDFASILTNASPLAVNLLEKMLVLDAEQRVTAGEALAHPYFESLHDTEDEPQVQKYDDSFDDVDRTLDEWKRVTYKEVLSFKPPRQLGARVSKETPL

[16] = target: Serine/threonine-protein kinase 26 (Homo sapiens) (UniProt Q9P289); assay: Inhibition of MST4 assessed as residual activity at 10 uM using [33P-ATP] by radiometric filter binding assay
[17] = target: Receptor-interacting serine/threonine-protein kinase 2 (Homo sapiens) (UniProt O43353); assay: Inhibition of RIPK2 assessed as residual activity at 10 uM using [33P-ATP] by radiometric filter binding assay
[18] = target: Tau-tubulin kinase 1 (Homo sapiens) (UniProt Q5TCY1); assay: Inhibition of TTBK1 assessed as residual activity at 10 uM using [33P-ATP] by radiometric filter binding assay
[19] = target: Testis-specific serine/threonine-protein kinase 1 (Homo sapiens) (UniProt Q9BXA7); assay: Inhibition of TSSK1 assessed as residual activity at 10 uM using [33P-ATP] by radiometric filter binding assay
[20] = target: Tyrosine-protein kinase JAK2 (Homo sapiens) (UniProt O60674); assay: Inhibition of JAK2 assessed as residual activity at 10 uM using [33P-ATP] by radiometric filter binding assay
[21] = target: Dual specificity mitogen-activated protein kinase kinase 6 (Homo sapiens) (UniProt P52564); assay: Inhibition of MKK6 assessed as residual activity at 10 uM using [33P-ATP] by radiometric filter binding assay
Sequence of Dual specificity mitogen-activated protein kinase kinase 6 (Homo sapiens) (P52564 whole entry): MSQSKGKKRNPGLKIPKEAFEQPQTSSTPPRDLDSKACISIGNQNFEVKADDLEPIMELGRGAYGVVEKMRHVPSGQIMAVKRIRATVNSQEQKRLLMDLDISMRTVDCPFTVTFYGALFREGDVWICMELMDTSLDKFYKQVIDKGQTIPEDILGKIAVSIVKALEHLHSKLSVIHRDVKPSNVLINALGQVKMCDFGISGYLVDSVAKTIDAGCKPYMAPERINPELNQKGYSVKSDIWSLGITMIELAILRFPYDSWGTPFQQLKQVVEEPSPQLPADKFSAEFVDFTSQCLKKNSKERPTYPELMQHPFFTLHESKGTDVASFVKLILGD

[22] = target: Mitogen-activated protein kinase kinase kinase 5 (Homo sapiens) (UniProt Q99683); assay: Inhibition of ASK1 assessed as residual activity at 10 uM using [33P-ATP] by radiometric filter binding assay
Sequence of Mitogen-activated protein kinase kinase kinase 5 (Homo sapiens) (Q99683 whole entry): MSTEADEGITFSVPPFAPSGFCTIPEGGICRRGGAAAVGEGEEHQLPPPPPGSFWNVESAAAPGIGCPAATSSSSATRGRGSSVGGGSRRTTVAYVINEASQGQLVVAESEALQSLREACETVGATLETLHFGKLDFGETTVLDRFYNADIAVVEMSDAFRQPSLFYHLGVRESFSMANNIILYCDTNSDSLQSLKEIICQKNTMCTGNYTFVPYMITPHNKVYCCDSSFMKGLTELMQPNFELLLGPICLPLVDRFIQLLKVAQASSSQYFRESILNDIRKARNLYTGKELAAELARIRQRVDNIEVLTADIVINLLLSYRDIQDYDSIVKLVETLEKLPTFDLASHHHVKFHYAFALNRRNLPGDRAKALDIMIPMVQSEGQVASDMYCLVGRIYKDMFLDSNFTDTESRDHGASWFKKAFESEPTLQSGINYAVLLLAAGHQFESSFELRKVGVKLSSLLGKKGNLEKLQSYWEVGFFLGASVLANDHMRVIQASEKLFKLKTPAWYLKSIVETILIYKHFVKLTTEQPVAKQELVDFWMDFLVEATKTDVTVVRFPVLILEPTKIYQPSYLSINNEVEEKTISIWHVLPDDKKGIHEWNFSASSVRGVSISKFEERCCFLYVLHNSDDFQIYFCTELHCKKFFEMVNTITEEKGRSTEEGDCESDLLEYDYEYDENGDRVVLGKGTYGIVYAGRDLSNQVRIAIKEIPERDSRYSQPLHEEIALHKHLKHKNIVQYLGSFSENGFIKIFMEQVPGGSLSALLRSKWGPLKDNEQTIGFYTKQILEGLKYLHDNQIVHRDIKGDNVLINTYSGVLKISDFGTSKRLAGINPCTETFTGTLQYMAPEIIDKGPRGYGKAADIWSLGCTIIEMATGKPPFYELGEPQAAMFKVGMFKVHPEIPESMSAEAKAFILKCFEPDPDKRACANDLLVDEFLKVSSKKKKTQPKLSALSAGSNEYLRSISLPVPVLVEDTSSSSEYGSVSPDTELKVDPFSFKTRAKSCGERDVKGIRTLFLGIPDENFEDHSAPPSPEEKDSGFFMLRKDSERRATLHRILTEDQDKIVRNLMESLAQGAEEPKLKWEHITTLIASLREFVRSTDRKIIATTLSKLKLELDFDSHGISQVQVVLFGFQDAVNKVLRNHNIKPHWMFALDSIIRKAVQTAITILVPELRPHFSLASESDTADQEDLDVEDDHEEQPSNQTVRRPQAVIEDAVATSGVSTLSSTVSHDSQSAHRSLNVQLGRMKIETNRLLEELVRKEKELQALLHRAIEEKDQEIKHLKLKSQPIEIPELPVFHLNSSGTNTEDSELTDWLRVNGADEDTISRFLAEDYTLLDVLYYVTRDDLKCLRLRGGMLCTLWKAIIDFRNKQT

[23] = target: Serine/threonine-protein kinase N2 (Homo sapiens) (UniProt Q16513); assay: Inhibition of PRK2 assessed as residual activity at 10 uM using [33P-ATP] by radiometric filter binding assay
[24] = target: Mitogen-activated protein kinase kinase kinase 11 (Homo sapiens) (UniProt Q16584); assay: Inhibition of MLK3 assessed as residual activity at 10 uM using [33P-ATP] by radiometric filter binding assay
[25] = target: Serine/threonine-protein kinase STK11 (Homo sapiens) (UniProt Q15831); assay: Inhibition of LKB1 assessed as residual activity at 10 uM using [33P-ATP] by radiometric filter binding assay
Sequence of Serine/threonine-protein kinase STK11 (Homo sapiens) (Q15831 whole entry): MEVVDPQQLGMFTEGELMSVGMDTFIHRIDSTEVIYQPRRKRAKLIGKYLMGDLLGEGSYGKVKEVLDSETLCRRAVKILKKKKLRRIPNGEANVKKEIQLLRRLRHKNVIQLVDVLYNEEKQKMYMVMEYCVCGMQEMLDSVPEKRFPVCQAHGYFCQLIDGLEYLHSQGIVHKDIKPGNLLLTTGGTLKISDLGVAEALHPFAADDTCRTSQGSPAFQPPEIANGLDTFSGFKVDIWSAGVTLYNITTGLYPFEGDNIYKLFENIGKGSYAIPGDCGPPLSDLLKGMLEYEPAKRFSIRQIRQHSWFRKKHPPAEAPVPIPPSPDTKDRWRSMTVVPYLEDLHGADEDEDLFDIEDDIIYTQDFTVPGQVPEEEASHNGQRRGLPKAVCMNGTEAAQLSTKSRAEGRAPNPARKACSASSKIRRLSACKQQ

[26] = target: Inhibitor of nuclear factor kappa-B kinase subunit epsilon (Homo sapiens) (UniProt Q14164); assay: Inhibition of IKKepsilon assessed as residual activity at 10 uM using [33P-ATP] by radiometric filter binding assay
Sequence of Inhibitor of nuclear factor kappa-B kinase subunit epsilon (Homo sapiens) (Q14164 whole entry): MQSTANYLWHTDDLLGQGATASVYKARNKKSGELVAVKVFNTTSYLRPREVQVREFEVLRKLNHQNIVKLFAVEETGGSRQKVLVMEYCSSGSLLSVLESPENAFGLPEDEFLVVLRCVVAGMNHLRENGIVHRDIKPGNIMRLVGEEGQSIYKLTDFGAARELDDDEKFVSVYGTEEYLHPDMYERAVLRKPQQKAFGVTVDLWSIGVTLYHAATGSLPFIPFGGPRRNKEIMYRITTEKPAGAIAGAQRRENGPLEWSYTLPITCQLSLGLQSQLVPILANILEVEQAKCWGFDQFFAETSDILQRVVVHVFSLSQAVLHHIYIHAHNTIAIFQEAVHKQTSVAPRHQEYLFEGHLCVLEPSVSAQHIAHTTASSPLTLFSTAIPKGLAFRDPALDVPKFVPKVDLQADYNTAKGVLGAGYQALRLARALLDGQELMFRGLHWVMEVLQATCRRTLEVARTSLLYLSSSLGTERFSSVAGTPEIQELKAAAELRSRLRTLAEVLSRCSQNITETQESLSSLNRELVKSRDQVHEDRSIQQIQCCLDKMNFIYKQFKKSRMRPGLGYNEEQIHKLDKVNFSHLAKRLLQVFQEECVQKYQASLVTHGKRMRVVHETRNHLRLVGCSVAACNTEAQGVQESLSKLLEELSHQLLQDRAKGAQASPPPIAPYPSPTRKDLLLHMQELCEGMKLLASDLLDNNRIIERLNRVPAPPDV

[27] = target: MAP kinase-interacting serine/threonine-protein kinase 1 (Homo sapiens) (UniProt Q9BUB5); assay: Inhibition of MNK1 assessed as residual activity at 10 uM using [33P-ATP] by radiometric filter binding assay
[28] = target: Proto-oncogene tyrosine-protein kinase Src (Homo sapiens) (UniProt P12931); assay: Inhibition of Src assessed as residual activity at 10 uM using [33P-ATP] by radiometric filter binding assay
[29] = target: Protein kinase C gamma type (Homo sapiens) (UniProt P05129); assay: Inhibition of PKCgamma assessed as residual activity at 10 uM using [33P-ATP] by radiometric filter binding assay
[30] = Inhibition of CK2 assessed as residual activity at 10 uM using [33P-ATP] by radiometric filter binding assay
[31] = target: Serine/threonine-protein kinase pim-2 (Homo sapiens) (UniProt Q9P1W9); assay: Inhibition of PIM2 assessed as residual activity at 10 uM using [33P-ATP] by radiometric filter binding assay
Sequence of Serine/threonine-protein kinase pim-2 (Homo sapiens) (Q9P1W9 whole entry, looked up): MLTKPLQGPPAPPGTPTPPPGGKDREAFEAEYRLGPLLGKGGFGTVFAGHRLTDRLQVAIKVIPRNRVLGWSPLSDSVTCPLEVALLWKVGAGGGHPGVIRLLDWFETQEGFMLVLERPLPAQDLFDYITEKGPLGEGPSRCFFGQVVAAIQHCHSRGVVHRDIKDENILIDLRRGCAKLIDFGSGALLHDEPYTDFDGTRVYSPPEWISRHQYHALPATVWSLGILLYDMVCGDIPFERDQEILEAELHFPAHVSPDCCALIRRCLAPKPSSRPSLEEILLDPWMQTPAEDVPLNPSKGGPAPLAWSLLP

[32] = target: Rho-associated protein kinase 2 (Homo sapiens) (UniProt O75116); assay: Inhibition of ROCK2 assessed as residual activity at 10 uM using [33P-ATP] by radiometric filter binding assay

Question: For `Cc1ccc(F)cc1-c1nc2[nH]nc(N)c2c2c1CCCC2`, which Activity [1] is on record?
Answer: Its Activity is 64%.

Question: What about the Activity [2] of the same compound?
Answer: The Activity was 31%.

Question: What about the Activity [3] of the same compound?
Answer: The Activity was 93%.

Question: And the Activity [4]?
Answer: Its Activity is 103%.

Question: What about the Activity [5] of the same compound?
Answer: Its Activity is 103%.

Question: What about the Activity [6] of the same compound?
Answer: Its Activity is 63%.

Question: And the Activity [7]?
Answer: Its Activity is 84%.

Question: And the Activity [8]?
Answer: The Activity was 65%.

Question: And the Activity [9]?
Answer: The Activity was 87%.

Question: And the Activity [10]?
Answer: Its Activity is 86%.

Question: What about the Activity [11] of the same compound?
Answer: Its Activity is 49%.

Question: And the Activity [12]?
Answer: Its Activity is 100%.

Question: What about the Activity [13] of the same compound?
Answer: Its Activity is 71%.

Question: What about the Activity [14] of the same compound?
Answer: Its Activity is 60%.

Question: What about the Activity [15] of the same compound?
Answer: Its Activity is 91%.

Question: What about the Activity [16] of the same compound?
Answer: Its Activity is 52%.

Question: What about the Activity [17] of the same compound?
Answer: The Activity was 17%.

Question: What about the Activity [18] of the same compound?
Answer: The Activity was 94%.

Question: What about the Activity [19] of the same compound?
Answer: Its Activity is 75%.

Question: And the Activity [20]?
Answer: Its Activity is 74%.

Question: What about the Activity [21] of the same compound?
Answer: The Activity was 86%.

Question: And the Activity [22]?
Answer: Its Activity is 99%.

Question: And the Activity [23]?
Answer: Its Activity is 89%.

Question: And the Activity [24]?
Answer: Its Activity is 60%.

Question: What about the Activity [25] of the same compound?
Answer: Its Activity is 52%.

Question: And the Activity [26]?
Answer: Its Activity is 96%.

Question: And the Activity [27]?
Answer: Its Activity is 78%.

Question: What about the Activity [28] of the same compound?
Answer: The Activity was 25%.

Question: What about the Activity [29] of the same compound?
Answer: The Activity was 108%.

Question: What about the Activity [30] of the same compound?
Answer: The Activity was 93%.

Question: And the Activity [31]?
Answer: Its Activity is 100%.

Question: And the Activity [32]?
Answer: The Activity was 90%.
